These results are taken from the NIST ThermoML archive (doi:10.1016/j.jct.2014.01.007).

For data set [1] the following is noted: for mass density: 101.33 kPa; for Triple point temperature: DTA.
A short description of data set [2]: molar enthalpy of vaporization or sublimation. The conditions noted are these: 298.15 K; Liquid; Static calorimetry.
The nature of data set [3]: Molar enthalpy of transition or fusion. As to conditions: DSC.

± gives the expanded uncertainty stated by the source.

On to `CN(C)C(=N)N(C)C` [1,1,3,3-tetramethylguanidine], for which the mass density stood at 921.517 ± 0.12 kg/m3 in data set [1] (288.15 K, Liquid, Vibrating tube method); 917.012 ± 0.12 kg/m3 in data set [1] (293.15 K, Liquid, Vibrating tube method); 912.5 ± 0.12 kg/m3 in data set [1] (298.14 K, Liquid, Vibrating tube method); 907.982 ± 0.12 kg/m3 in data set [1] (303.15 K, Liquid, Vibrating tube method); 903.458 ± 0.12 kg/m3 in data set [1] (308.15 K, Liquid, Vibrating tube method). Moreover, the molar enthalpy in data set [2] is 11.9 ± 0.359 kcal/mol.
Regarding `CN(C)C(N)=[N+](C)C.O=[N+]([O-])[O-]` [tetramethylguanidinium nitrate], the mass density in data set [1] (167 K, Crystal 2, X-ray diffraction) turned out to be 1295 ± 7 kg/m3; in data set [1] (251 K, Crystal 1, X-ray diffraction), 1284 ± 7 kg/m3. Further, the Triple point temperature in data set [1] (Crystal 1) was determined as 365.9 ± 0.5 K; in data set [1] (Crystal 2), 221.4 ± 1.7 K. The “Molar enthalpy of transition or fusion” value in data set [3] (Crystal 1) amounted to 4.74 ± 0.122 kcal/mol; in data set [3] (Crystal 2) it was 0.159 ± 0.0335 kcal/mol.
